Laboratory results: ChEMBL document CHEMBL1148868, “Isoform selective inhibition of STAT1 or STAT3 homo-dimerization via peptidomimetic probes: structural recognition of STAT SH2 domains” (Bioorg Med Chem Lett, 2007)
The source made the active and inactive calls. No cut-off for these calls is given here.

Legend:
[1] = molecular target: T1, Signal transducer and activator of transcription 1-alpha/beta (Homo sapiens) (UniProt P42224); assay: (§1) Inhibition of STAT1 dimer DNA binding activity after 30 mins; assay type: functional
T1 sequence (whole entry): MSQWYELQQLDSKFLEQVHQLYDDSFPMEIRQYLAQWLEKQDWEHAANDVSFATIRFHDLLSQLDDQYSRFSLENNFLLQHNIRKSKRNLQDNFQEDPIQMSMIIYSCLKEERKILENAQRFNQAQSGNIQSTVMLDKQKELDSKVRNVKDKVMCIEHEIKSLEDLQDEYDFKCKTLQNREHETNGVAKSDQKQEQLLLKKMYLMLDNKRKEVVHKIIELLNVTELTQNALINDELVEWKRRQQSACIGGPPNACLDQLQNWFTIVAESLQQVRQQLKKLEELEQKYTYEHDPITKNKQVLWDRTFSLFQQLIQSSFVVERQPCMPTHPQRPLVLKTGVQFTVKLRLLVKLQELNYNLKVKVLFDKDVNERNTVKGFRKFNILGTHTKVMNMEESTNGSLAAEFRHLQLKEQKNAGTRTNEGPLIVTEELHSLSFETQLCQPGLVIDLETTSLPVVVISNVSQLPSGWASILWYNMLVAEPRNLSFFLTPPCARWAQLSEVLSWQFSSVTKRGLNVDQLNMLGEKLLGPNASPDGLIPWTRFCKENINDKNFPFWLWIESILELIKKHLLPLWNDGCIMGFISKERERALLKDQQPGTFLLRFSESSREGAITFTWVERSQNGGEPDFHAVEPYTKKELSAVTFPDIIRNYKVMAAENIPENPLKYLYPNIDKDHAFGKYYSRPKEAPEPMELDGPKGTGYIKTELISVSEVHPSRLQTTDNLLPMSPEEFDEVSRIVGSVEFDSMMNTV

[2] = molecular target: Signal transducer and activator of transcription 3 (Homo sapiens, UniProt P40763); assay: Inhibition of STAT3 dimer DNA binding activity after 30 mins
Chain of Signal transducer and activator of transcription 3 (P40763 whole entry): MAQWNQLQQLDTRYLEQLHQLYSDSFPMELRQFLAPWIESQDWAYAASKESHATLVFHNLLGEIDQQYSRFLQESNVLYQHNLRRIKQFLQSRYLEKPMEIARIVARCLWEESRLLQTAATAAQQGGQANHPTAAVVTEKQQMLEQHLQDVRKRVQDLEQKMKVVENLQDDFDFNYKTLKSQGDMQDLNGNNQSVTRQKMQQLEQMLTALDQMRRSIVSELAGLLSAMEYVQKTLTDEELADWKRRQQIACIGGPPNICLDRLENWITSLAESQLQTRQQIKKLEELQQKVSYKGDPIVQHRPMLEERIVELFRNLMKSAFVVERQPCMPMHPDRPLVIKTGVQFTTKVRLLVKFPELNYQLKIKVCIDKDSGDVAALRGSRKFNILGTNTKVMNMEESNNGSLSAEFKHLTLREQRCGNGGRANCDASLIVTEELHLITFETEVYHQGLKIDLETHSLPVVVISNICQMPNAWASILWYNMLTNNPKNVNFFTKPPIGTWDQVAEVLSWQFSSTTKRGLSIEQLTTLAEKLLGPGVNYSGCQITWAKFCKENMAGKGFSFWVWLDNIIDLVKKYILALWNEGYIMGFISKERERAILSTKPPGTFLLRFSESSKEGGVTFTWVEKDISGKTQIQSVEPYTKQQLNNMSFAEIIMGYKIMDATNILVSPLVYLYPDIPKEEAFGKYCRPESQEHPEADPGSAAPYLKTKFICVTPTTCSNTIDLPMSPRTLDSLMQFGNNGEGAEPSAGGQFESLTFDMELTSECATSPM

[3] = molecular target: T2, Signal transducer and activator of transcription 1-alpha/beta (Homo sapiens, UniProt P42224); assay: as §1; assay type: functional
T2 sequence (P42224 whole entry): T1 sequence (whole entry)

| Activity [1] | Activity [2] | IC50 [3] [µM] | IC50 [2] [µM] | SMILES |
| --- | --- | --- | --- | --- |
| inactive | inactive | – | – | CC(C)C[C@H](NC(=O)[C@H](Cc1ccc(OP(=O)(O)O)cc1)NC(=O)c1ccc(C#N)cc1)C(=O)NCc1cccnc1 |
| – | – | 250 | 74 | CC(C)CNC(=O)[C@H](CC(C)C)NC(=O)[C@H](Cc1ccc(OP(=O)(O)O)cc1)NC(=O)c1ccc(C#N)cc1 (stereo in doubt; form 2) |
| – | – | 210 | 620 | CC(C)C[C@H](NC(=O)[C@H](Cc1ccc(OP(=O)(O)O)cc1)NC(=O)c1ccc(C#N)cc1)C(=O)NCCCO |
| – | – | 380 | 310 | CC(C)C[C@H](NC(=O)[C@H](Cc1ccc(OP(=O)(O)O)cc1)NC(=O)c1ccc(C#N)cc1)C(=O)Nc1ccccc1 |
| – | – | 560 | 31 | COc1cccc(NC(=O)[C@H](CC(C)C)NC(=O)[C@H](Cc2ccc(OP(=O)(O)O)cc2)NC(=O)c2ccc(C#N)cc2)c1 |
| – | – | 760 | 58 | CC(C)CNC(=O)[C@H](CC(C)C)NC(=O)[C@H](Cc1ccc(OP(=O)(O)O)cc1)NC(=O)c1ccc(C#N)cc1 (stereo in doubt; form 1) |
| inactive | inactive | – | – | COC(=O)[C@H](CC(C)C)NC(=O)[C@H](Cc1ccc(OP(=O)(O)O)cc1)NC(=O)c1ccc(C#N)cc1 |
| – | – | 402 | 123 | CC(C)C[C@H](NC(=O)[C@H](Cc1ccc(OP(=O)(O)O)cc1)NC(=O)c1ccc(C#N)cc1)C(=O)NCc1ccncc1 |
| – | – | 760 | 800 | CC(C)C[C@H](NC(=O)[C@H](Cc1ccc(OP(=O)(O)O)cc1)NC(=O)c1ccc(C#N)cc1)C(=O)NCc1ccccc1 |
| inactive | inactive | – | – | Cc1cccc(NC(=O)[C@H](CC(C)C)NC(=O)[C@H](Cc2ccc(OP(=O)(O)O)cc2)NC(=O)c2ccc(C#N)cc2)c1 |

| SMILES | Activity [1] | Activity [2] | IC50 [3] [µM] | IC50 [2] [µM] |
| --- | --- | --- | --- | --- |
| CC(C)C[C@H](NC(=O)[C@H](Cc1ccc(OP(=O)(O)O)cc1)NC(=O)c1ccc(C#N)cc1)C(=O)NC1CCCCC1 | – | – | 605 | 58 |
